Results published in patent EP0658565A1, “Oral products” (UNILEVER PLC, priority 1993, dated 1995).

What was measured:
[1] = test system: plaque bacteria; test: in vitro anti-plaque test involving saliva reinoculation; type: cell-based; details: 20 minutes on plaque grown on enamel discs
[2] = test system: S.mutans; details: pH = 7; acid production by S.mutans

Compound	Relative Anti-Plaque Activity (% bacteria killed vs. control growth) ([1]; Sn^II conc. 1188 ppm)	Relative Anti-Plaque Activity (% bacteria killed vs. control growth) ([1]; Sn^II conc. 3594 ppm)	Relative Anti-Plaque Activity (% bacteria killed vs. control growth) ([1]; Sn^II conc. 6000 ppm)	Concentration of Sn²⁺ in mmole to reach 100 % acid inhibition [2]	Relative Anti-Plaque Activity (% bacteria killed vs. control growth) ([1]; Sn^II conc. 2406 ppm)
O=P([O-])([O-])O[C@H]1O[C@H](CO)[C@@H](O)[C@H](O)[C@H]1O.[Sn+2] [Sn G-1-P, stannous glucose-1-phosphate]	32%	96%	98%	0.2 mmol	–
O=P([O-])([O-])OP(=O)([O-])[O-].[Sn+2].[Sn+2] [Sn₂P₂O₇, stannous pyrophosphate, reference compound]	–	–	76%	1.02 mmol	–
stannous glucose-6-phosphate [Sn G-6-P]	–	75%	88%	0.25 mmol	22%
